{
  "source": "patent US7083940B2",
  "about": "“Pregnancy-associated plasma protein-A2 (PAPP-A2)” (Como Biotech ApS, priority 2000, dated 2006)",
  "tested_on": "rIGFBP-5",
  "test": "Ligand blotting with radiolabeled IGF-II, activity of PAPP-A2 against IGFBP-5",
  "type": "biochemical",
  "settings": "medium from cells transfected with pPA2",
  "method": "Medium from 293T cells transfected with empty vector (−), or cDNA encoding PAPP-A2 (pPA2) (+) was incubated with each of the six IGFBPs (BP1–BP6), and the activity was assessed by ligand blotting using radiolabeled IGF-II.\nLigand blotting (Conover et al., 1993, J Clin Invest 91, 1129–37) with radiolabeled IGF-II (Bachem) was used to assay for activity against IGFBP-1 (from HepG2 conditioned medium), rIGFBP-2 (GroPep), rIGFBP-3 (gift of D. Powell), rIGFBP-4 (Austral), rIGFBP-5 (gift of D. Andress), and rIGFBP-6 (Austral). […] Experiments were carried out with media from cells transfected with pPA2 or empty vector.",
  "data": [
    {"substance": "PAPP-A2: recombinant pregnancy-associated plasma protein-A2, SEQ ID NO:2, metzincin metalloproteinase expressed in 293T cells", "values": [
      {"measurement": "Dependence of cleavage on IGF", "value": "independent of the presence of IGF"}
    ]}
  ]
}
